≈ marks a conversion by molar mass, not a printed value.
Tests used:
Format in all cases: cell-based
[1] = tested on: Staphylococcus aureus MRQR; assay: MIC, broth-dilution, Staphylococci in broth; settings: Staphylococcus aureus MRQR (methicillin resistant and quinolone resistant); 37° C., 16-24 hours
Method: (§1) The following results were obtained on a standard in-vitro test system. The activity is described in terms of the minimum inhibitory concentration (MIC) determined by the broth-dilution technique with an inoculum size of 5×10^4 CFU/spot. Typically, compounds are active in the range 0.01 to 256 μg/ml.
(§2) Staphylococci were tested in broth using an inoculum of 5×10^4 CFU/spot and an incubation temperature of 37° C. for 16-24 hours.
(§3) • MSQS=methicillin sensitive and quinolone sensitive • MRQR=methincillin resistant and quinolone resistant

[2] = tested on: Staphylococcus aureus MSQS; assay: MIC, broth-dilution, Staphylococci in broth; settings: Staphylococcus aureus MSQS (methicillin sensitive and quinolone sensitive); 37° C., 16-24 hours
Method: as §1, §2, §3

Streptococcus pneumoniae = assay: MIC, broth-dilution, Streptococci in Mueller-Hinton broth with horse blood; settings: 37° C. aerobically, 24 hours
Method: as §1, with “μg/ml. Streptococci were tested in Mueller-Hinton broth supplemented with 2.5% clarified lake horse blood with an innoculum of 10^4 CFU/well and an incubation temperature of 37° C. aerobically for 24 hours.” for “μg/ml.”

Streptococcus pyogenes = assay: as above; settings: 37° C. aerobically, 24 hours
Method: as §1, with “μg/ml. Streptococci were tested in Mueller-Hinton broth supplemented with 2.5% clarified lake horse blood with an innoculum of 10^4 CFU/well and an incubation temperature of 37° C. aerobically for 24 hours.” for “μg/ml.”

Haemophilus influenzae = assay: MIC, broth-dilution, fastidious Gram negative organisms; settings: hemin and NAD, 24 h at 37° C.
Method: as §1, with “μg/ml. Fastidious Gram negative organisms were tested in Mueller-Hinton broth supplemented with hemin and NAD, grown aerobically for 24 h at 37° C., and with an innoculum of 5×10^4 CFU/well.” for “μg/ml.”

Moraxella catarrhalis = assay: as above; settings: hemin and NAD, 24 h at 37° C.
Method: as §1, with “μg/ml. Fastidious Gram negative organisms were tested in Mueller-Hinton broth supplemented with hemin and NAD, grown aerobically for 24 h at 37° C., and with an innoculum of 5×10^4 CFU/well.” for “μg/ml.”

- MIC [1]: 8 µg/mL (≈ 19.5 µM)
- MIC [2]: 1 µg/mL (≈ 2.44 µM)
- MIC (Streptococcus pneumoniae): 2 µg/mL (≈ 4.88 µM)
- MIC (Streptococcus pyogenes): 2 µg/mL (≈ 4.88 µM)
- MIC (Haemophilus influenzae): 8 µg/mL (≈ 19.5 µM)
- MIC (Moraxella catarrhalis): 8 µg/mL (≈ 19.5 µM)
SMILES: N=S1(=O)CC=C(c2c(F)cc(N3C[C@H](Cn4ccnn4)OC3=O)cc2F)CC1 (stereo partly drawn) [Example 2, (5R)-3-[3,5-Difluoro-4-(1RS-1-imino-1-oxo-3,6-dihydrothiopyran-4-yl)-phenyl]-5-(1H-1,2,3-triazol-1-ylmethyl)-2-oxazolidinone]

Source: patent publication US20050032861A1, “Oxazolidines containing a sulfonimid group as antibiotics” (priority 2001, published 2005)
